In ChEMBL document CHEMBL1201862, “PubChem BioAssay data set” (2004):
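Five compound concentrations were applied to cells in 96-well plates for 48 hours; endpoints were derived by simple linear interpolation of the resulting dose-response curve. At the GI50, growth is halved.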 Calls of active or inactive are those of the source. Rule as the data show it: active = GI50 up to about 1.1 µM and inactive = higher.

Key:
Assay in all cases: NCI tumour cell line growth inhibition, 48 h
Malme-3M = system: Malme-3M
SF-268 = system: SF-268
UACC-62 = system: UACC-62
SK-MEL-2 = system: SK-MEL-2
A549 = system: A549
SNB-78 = system: SNB-78
SK-MEL-28 = system: SK-MEL-28
KM12 = system: KM12
HCT-15 = system: HCT-15
DMS-114 = system: DMS-114
SF-295 = system: SF-295
LOX IMVI = system: LOX IMVI
DMS-273 = system: DMS-273
NCI-H522 = system: NCI-H522
SNB-19 = system: SNB-19
SW-620 = system: SW-620
HOP-92 = system: HOP-92
NCI/ADR-RES = system: NCI/ADR-RES
DU-145 = system: DU-145
PC-3 = system: PC-3

Compound | GI50 (Malme-3M) | GI50 (SF-268) | GI50 (UACC-62) | GI50 (SK-MEL-2) | GI50 (A549) | GI50 (SNB-78) | GI50 (SK-MEL-28) | GI50 (KM12) | GI50 (HCT-15) [µM] | GI50 (DMS-114) | GI50 (SF-295) | GI50 (LOX IMVI) | GI50 (DMS-273) | GI50 (NCI-H522) | GI50 (SNB-19) | GI50 (SW-620) | GI50 (HOP-92) | GI50 (NCI/ADR-RES) | GI50 (DU-145) | GI50 (PC-3)
COC(=O)CN(C)P(=O)(N1CC1)N1CC1 | > 100 µM (inactive) | 89.7 µM (inactive) | 90.2 µM (inactive) | > 100 µM (inactive) | > 100 µM (inactive) | > 100 µM (inactive) | > 100 µM (inactive) | > 100 µM (inactive) | > 100 | 55.1 µM (inactive) | 90.2 µM (inactive) | 76 µM (inactive) | > 100 µM (inactive) | > 100 µM (inactive) | > 100 µM (inactive) | > 100 µM (inactive) | – | – | – | –
COc1ccc(/N=C\c2ccc(N(CCC#N)S(=O)(=O)c3ccccc3)cc2C)cc1 | 25.6 µM (inactive) | 3.58 µM (inactive) | 8.99 µM (inactive) | 23.3 µM (inactive) | 26.5 µM (inactive) | 79.1 µM (inactive) | 39.9 µM (inactive) | – | 8.53 | 13.2 µM (inactive) | 63.2 µM (inactive) | – | – | > 100 µM (inactive) | > 100 µM (inactive) | 59.8 µM (inactive) | > 100 µM (inactive) | – | – | –
O=C1CCCC/C1=C1/SC(=N/c2ccccc2)/C(=N\c2ccccc2)N1c1ccccc1 | > 100 µM (inactive) | – | 38.1 µM (inactive) | > 100 µM (inactive) | – | – | > 100 µM (inactive) | > 100 µM (inactive) | > 100 | – | 86.3 µM (inactive) | – | – | > 100 µM (inactive) | > 100 µM (inactive) | – | > 100 µM (inactive) | > 100 µM (inactive) | 56.8 µM (inactive) | > 10 µM (inactive)
O=c1c(-c2ccccc2)c(SCCN2CCOCC2)n(-c2ccccc2)c(=S)n1-c1ccccc1 | > 100 µM (inactive) | – | 89.1 µM (inactive) | > 100 µM (inactive) | – | – | > 100 µM (inactive) | > 100 µM (inactive) | > 100 | – | 83.6 µM (inactive) | > 100 µM (inactive) | – | 51.5 µM (inactive) | – | > 100 µM (inactive) | 25.2 µM (inactive) | > 100 µM (inactive) | > 100 µM (inactive) | > 100 µM (inactive)
CCNC(=S)NNC(=O)c1nsc2ccccc12 | – | 81.5 µM (inactive) | 63.8 µM (inactive) | 2.88 µM (inactive) | > 100 µM (inactive) | > 100 µM (inactive) | > 100 µM (inactive) | 67.1 µM (inactive) | 38.2 | 95.5 µM (inactive) | – | 64.9 µM (inactive) | 97.5 µM (inactive) | – | > 100 µM (inactive) | > 100 µM (inactive) | 85.7 µM (inactive) | – | – | –
O=C(Nc1ccc([N+](=O)[O-])cc1)C(=O)C(C(=O)c1ccccc1F)C1OC(=O)c2ccccc21 (stereo not given) | – | 35 µM (inactive) | 25.2 µM (inactive) | 23.7 µM (inactive) | 67.6 µM (inactive) | 5.65 µM (inactive) | 46.9 µM (inactive) | 42.4 µM (inactive) | 29.9 | 29 µM (inactive) | 40.3 µM (inactive) | 17.7 µM (inactive) | 23.8 µM (inactive) | 14.7 µM (inactive) | 26.4 µM (inactive) | 49 µM (inactive) | > 100 µM (inactive) | – | – | –
Nc1nc2ccc3ccccc3c2[nH]1 | > 10 µM (inactive) | > 10 µM (inactive) | > 10 µM (inactive) | > 10 µM (inactive) | > 10 µM (inactive) | – | > 10 µM (inactive) | > 10 µM (inactive) | > 10 | – | > 10 µM (inactive) | > 10 µM (inactive) | – | > 10 µM (inactive) | > 10 µM (inactive) | > 10 µM (inactive) | – | > 10 µM (inactive) | > 10 µM (inactive) | > 10 µM (inactive)
CN(C)CCOc1cc2c(c3ccccc13)-c1ccccc1C2O (stereo not given) | 18.2 µM (inactive) | 14.5 µM (inactive) | 17.2 µM (inactive) | 17.2 µM (inactive) | 15.5 µM (inactive) | 15.9 µM (inactive) | 16 µM (inactive) | 14.8 µM (inactive) | 12.4 | 11.7 µM (inactive) | 13.5 µM (inactive) | 10.2 µM (inactive) | 15 µM (inactive) | 16 µM (inactive) | 8.28 µM (inactive) | 12.4 µM (inactive) | 6.56 µM (inactive) | 3.49 µM (inactive) | – | –
CS(C)(=O)=Nn1c(=O)n2n(c1=O)C1c3ccccc3C2c2ccccc21 | > 100 µM (inactive) | – | > 100 µM (inactive) | > 100 µM (inactive) | > 100 µM (inactive) | – | > 100 µM (inactive) | – | > 100 | – | > 100 µM (inactive) | > 100 µM (inactive) | – | > 100 µM (inactive) | > 100 µM (inactive) | > 100 µM (inactive) | > 100 µM (inactive) | > 100 µM (inactive) | > 100 µM (inactive) | > 100 µM (inactive)
O=C(NNC(=S)Nc1ccccc1)c1nsc2ccccc12 | – | 30.1 µM (inactive) | 26.2 µM (inactive) | 19.6 µM (inactive) | 28.8 µM (inactive) | 47.9 µM (inactive) | 34.6 µM (inactive) | 30.4 µM (inactive) | 10.7 | 24.9 µM (inactive) | – | 23.7 µM (inactive) | 17.3 µM (inactive) | – | 34.9 µM (inactive) | 40.6 µM (inactive) | 20.4 µM (inactive) | – | – | –
CSC1SCC2C(=O)N(C)C(C(C)C)C(=O)OCC(NC(=O)c3cnc4ccccc4n3)C(=O)NC(C)C(=O)N(C)C1C(=O)N(C)C(C(C)C)C(=O)OCC(NC(=O)c1cnc3ccccc3n1)C(=O)NC(C)C(=O)N2C (stereo not given) | – | 0.0075 µM (active) | – | 0.0178 µM (active) | 0.0075 µM (active) | 0.0075 µM (active) | – | 0.0075 µM (active) | 0.0101 | 0.0104 µM (active) | 0.0075 µM (active) | – | 0.0075 µM (active) | – | 0.0075 µM (active) | 0.0075 µM (active) | – | 0.0454 µM (active) | 0.0031 µM (active) | 0.000993 µM (active)
COc1cc([C@@H]2c3cc4c(cc3[C@H](O)[C@H]3COC(=O)[C@H]23)OCO4)cc(OC)c1OC [PODOFILOX] | 3.01 µM (inactive) | < 0.005 µM (active) | < 0.005 µM (active) | – | – | 0.01 µM (active) | < 0.005 µM (active) | < 0.005 µM (active) | – | 0.01 µM (active) | < 0.005 µM (active) | < 0.005 µM (active) | 0.01 µM (active) | – | < 0.005 µM (active) | < 0.005 µM (active) | 0.227 µM (active) | < 0.005 µM (active) | < 0.005 µM (active) | < 0.005 µM (active)
